# Where no end group is shown, it is not given here. [ ]: non-standard residue; d: D form. lysine‑palmitate = lysine-palmitate bound at the N-terminal end; pY = N[C@@H](Cc1ccc(OP(=O)(O)O)cc1)C(=O)O
# Tests used:
# diabetic mice (db/db) = test: Retinal apoptosis by TUNEL, topical eye drops; format: in vivo
# Protocol: 8-week old diabetic mice (db/db) received the miS1 peptide in the form of eye drops (5 μL drops in each eye; 10 mg/mL; twice a day for 15 days; n=7 mice). Diabetic mice treated with the non-functional peptide Mut (n=7), treated with vehicle and non-diabetic mice (db/+) were used as controls. The eye drops were directly administered on the upper surface of the cornea of each eye using a micropipette. The weight and glycemia (colorimetric assay) were controlled throughout the study period. On day 15, the drop with the miS1 peptide or vehicle was administered about two hours before autopsy. The animals were euthanized by cervical dislocation and the enucleated eyes were immediately frozen and dorsoventral sections of […] were cut for analyzing retinal morphology and other immunohistochemical analyses.
# Glial activation was evaluated by means of GFAP (Glial fibrillar acidic protein) immunofluorescence following the methodology described in other studies (Bogdanov et al. PLoS One. 2014; 9:e97302). The fixed sections were blocked (1% BSA and 10% goat serum in PBS, 2 hours at RT) and incubated with anti-GFAP antibodies (dilution 1:500, 16 hours at 4° C.) followed by a secondary antibody (Alexa 488-conjugated goat anti-rabbit, dilution 1:200). […] The images of diabetic and control samples were taken with identical parameters and the topographic distribution of the GFAP labelling was analyzed in a scale of 0 to 5 (Anderson et al. Clin Ophthalmol 2008; 2(4):801-16). […] Apoptosis was determined by means of TUNEL (Terminal Transferase dUTP Nick-EndLabeling; fluorescence kit) immunohistochemistry using the previously described method (Bogdanov et al. PLoS One. 2014; 9:e97302) and subsequent quantification under a fluorescence microscope. […] The apoptotic cells were identified using green fluorescence [[…] goat-anti-rabbit (Invitrogen) (dilution 1:200 prepared in PBS)]. An excitation wavelength in the interval of 450-565 nm (e.g., 488 nm) was used for evaluation using fluorescence microscopy and the interval of 515-565 nm (green) was used for detection. […]
# [1] = tested on: streptozotocin diabetic apoE-deficient mice; test: Metabolic and renal data in mice with type 1 diabetes, intraperitoneal treatment; format: in vivo; conditions: STZ apoE mice, 65 μg/day i.p. every 2 days, 8 weeks
# Protocol: (§1) Apolipoprotein E (apoE)-deficient male mice of 8 weeks of age were made diabetic through streptozotocin injection (125 mg/kg weight in 10 mM citrate, pH 4.5, two consecutive days). After 2 weeks, animals with glycemia greater than 350 mg/dL were randomly distributed in two groups (n=9 animals per group): treated animals (miS1 peptide: 65 μg/day, 200 μL, intraperitoneally, every 2 days for 8 weeks) and controls (vehicle). The weight and glycemia (colorimetric assay) were controlled throughout the study period.
# (§2) At the end of the study, the anesthetized animals were perfused with saline and sacrificed, processing the tissues immediately. In renal cortex (paraffin sections, 5 μm) the glomerular and tubulointerstitial morphology was studied by means of PAS and Masson trichrome staining and the lesions were evaluated in a double-blind and semi-quantitative manner in a scale of 0-3. Renal fibrosis was determined by means of Picro-Sirius red staining and the infiltrating inflammatory cells (F4/80+ macrophages and CD3+ T-lymphocytes) by immunohistochemistry. In the aorta, the root/arch zone (serial cryosections of 8 μm from the valves to an extension of 1000 μm) was stained with Oil-red-O/hematoxylin and the area of the atherosclerotic lesion was quantified (Metamorph program). Plaque stability was assessed by collagen fiber staining with Picro-Sirius red and α-actin immunofluorescence. The inflammatory component was determined by means of immunohistochemistry for monocyte/macrophages (Moma2). The Image Pro-Plus program was used for quantifying positive stainings. The biochemical parameters in serum (glycated hemoglobin, cholesterol and creatinine) and in urine (albumin and creatinine) were determined by means of conventional commercial kits.
# [2] = tested on: streptozotocin diabetic apoE-deficient mice; test: Kidney histology (lesions, fibrosis, inflammatory infiltrate) in diabetic mice; format: in vivo; conditions: STZ apoE mice, i.p. 8 weeks
# Protocol: as §1, §2
# STAT1 [3] = test: Renal phosphorylated STAT1 immunodetection in diabetic mice; format: in vivo; conditions: STZ apoE mice, i.p. 8 weeks; kidney sections, vs vehicle
# Protocol: as §1
# STAT3 [4] = test: Renal phosphorylated STAT3 immunodetection in diabetic mice; format: in vivo; conditions: STZ apoE mice, i.p. 8 weeks; kidney sections, vs vehicle
# Protocol: as §1
# [5] = tested on: streptozotocin diabetic apoE-deficient mice; test: Atheromatous plaque size and composition in aorta of diabetic mice; format: in vivo; conditions: STZ apoE mice, i.p.
# Protocol: as §1, §2
# STAT1 [6] = test: STAT1 activation in cytokine-stimulated macrophages (Western blot); format: cell-based, murine; conditions: pre-incubation 50-150 ug/mL (Mut 150 ug/mL), IFNγ and IL-6 stimulation
# Protocol: (§3) RAW264.7 macrophages and vascular smooth muscle cells (VSMC) cultured in a medium with 10% fetal bovine serum were used. The cells were synchronized (24 hours without serum), pre-incubated for 90 minutes with different peptide concentrations (miS1 or the control thereof, 50-150 μg/mL) and stimulated with cytokines (IFNγ […]). STAT activation was analyzed by means of Western blot for phosphorylated STAT1/STAT3 isoforms. JAK/STAT pathway-dependent chemokine (CCL2) expression was determined by means of ELISA. Cell viability was analyzed by MTT colorimetric assay and macrophage migration was analyzed by chemotaxis assay.
# STAT3 [7] = test: STAT3 activation in cytokine-stimulated macrophages (Western blot); format: cell-based, murine; conditions: pre-incubation 50-150 ug/mL (Mut 150 ug/mL), IFNγ and IL-6 stimulation
# Protocol: as §3
# STAT1 [8] = test: STAT1 activation in cytokine-stimulated VSMC; format: cell-based, mouse; conditions: IFNγ and IL-6 stimulation, immunofluorescence images
# RAW264.7 macrophages = test: Cytokine-induced CCL2 production in macrophages (ELISA); format: cell-based, murine; conditions: pre-incubation with peptide, IFNγ and IL-6
# Protocol: as §3
# [9] = tested on: vascular smooth muscle cells (VSMC); test: Cytokine-induced CCL2 production in VSMC (ELISA); format: cell-based, mouse; conditions: pre-incubation with peptide, IFNγ and IL-6
# Protocol: as §3
# [10] = eye drops 50 μg in 5 μL/eye twice a day, 15 days
substance,measurement,setting,value
"miS1: SEQ ID NO 1 DTHFRTFRSHSDYRRI, kinase inhibitory region of murine SOCS1, bound to lysine-palmitate at the N-terminal end, tyrosine phosphorylated ({lysine‑palmitate}-DTHFRTFRSHSD[pY]RRI)",apoptosis rate (TUNEL) vs diabetic mice treated with vehicle,diabetic mice (db/db); [10],significantly lower apoptosis rate
same,percentage of apoptotic cells vs non-diabetic mice,diabetic mice (db/db); [10],No differences
same,reduction of apoptosis,"diabetic mice (db/db); eye drops 15 days, compared with groups that received Mut peptide or vehicle",about 80%
same,weight loss caused by chronic diabetes,[1],less pronounced
same,ALT,[1]; end of study,97 ± 17 U/L
same,AST,[1]; end of study,176 ± 20 U/L
same,Blood glucose,[1]; end of study,549 ± 29 mg/dL
same,GHbA1c,[1]; end of study,503 ± 76 µg/mL
same,HDL cholesterol,[1]; end of study,11 ± 1 mg/dL
same,LDL cholesterol,[1]; end of study,597 ± 61 mg/dL
same,Total cholesterol,[1]; end of study,611 ± 59 mg/dL
same,Triglycerides,[1]; end of study,89 ± 23 mg/dL
same,Weight,[1]; end of study,21.9 ± 0.6 g
same,Urine albumin-creatinine ratio,[1]; p < 0.01 vs control,16.2 ± 61.1 µg/µmol
same,Serum creatinine,[1]; p < 0.02 vs control,0.24 ± 0.04 mg/dL
same,Kidney-body mass ratio,[1]; p < 0.05 vs control,16.4 ± 1.3 mg/g
same,decrease in albumin levels (renal function),[1]; vs vehicle,28%
same,inflammatory lymphocyte and macrophage infiltrate in kidney,[2],significantly reduced
same,tubulointerstitial fibrosis,[2],significantly reduced
same,"glomerular lesions (hypercellularity, mesangial expansion and glomerular hypertrophy)",[2]; vs vehicle,improvement
same,"tubulointerstitial lesions (atrophy, degeneration and infiltrate)",[2]; vs vehicle,improvement
same,renal STAT1 activation,STAT1 [3],reduction
same,renal STAT3 activation,STAT3 [4],reduction
same,reduction in the size and extension of atheromatous lesions,"[5]; Oil-red-O/hematoxylin, compared with the control group that received the vehicle",50%
same,collagen and vascular cells content of plaques,[5]; plaque composition,higher
same,number of macrophages in the atherosclerotic lesions,[5]; plaque composition,reduction
same,STAT1 activation (phosphorylation),STAT1 [6],reduced STAT1 and STAT3 activation in a dose-dependent manner
same,STAT3 activation (phosphorylation),STAT3 [7],reduced STAT1 and STAT3 activation in a dose-dependent manner
same,STAT1 activation,STAT1 [8],prevented
same,reduction of cytokine-induced CCL2 production,RAW264.7 macrophages,30-40%
same,reduction of cytokine-induced CCL2 production,[9],30-40%

# Reference: US10532082B2, “SOCS1-derived peptide for use in chronic complications of diabetes” (Fundació Hospital Universitari Vall d'Hebron-Institut de …, priority 2014, dated 2020)
